Molecules are shown by their SMILES. A value given as a limit tells only on which side of the number the result lay.

What is called IC50 is the concentration needed to halve the response being measured.

human PDE4D catalytic domain, sequence (Q08499 380-740 limits assumed): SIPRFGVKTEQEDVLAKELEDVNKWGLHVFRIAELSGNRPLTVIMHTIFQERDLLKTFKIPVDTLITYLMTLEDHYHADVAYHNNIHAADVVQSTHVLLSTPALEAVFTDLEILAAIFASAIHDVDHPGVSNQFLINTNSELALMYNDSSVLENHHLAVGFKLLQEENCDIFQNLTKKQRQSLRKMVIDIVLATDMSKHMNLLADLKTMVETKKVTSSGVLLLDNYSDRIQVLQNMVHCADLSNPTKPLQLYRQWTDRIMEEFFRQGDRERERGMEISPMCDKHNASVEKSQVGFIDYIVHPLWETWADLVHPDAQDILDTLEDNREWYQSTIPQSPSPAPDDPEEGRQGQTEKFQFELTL

The assay concerns the target human PDE4D catalytic domain (UniProt no. Q08499) (Homo sapiens (Human), UniProt Q08499). Put plainly: PDE4 assay (TR-FRET, FAM-cAMP cleavage). Conditions: human PDE4D catalytic domain; molar concentration giving 50% inhibition of substrate cleavage; read-out: PDE4 IC50 range. Type of assay: biochemical. The essentials: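 PDE4D catalytic domain ([…]) was incubated with unlabelled cAMP plus FAM-cAMP and titrated compound, stopped with binding buffer of metal-ion nanoparticles and Tb donor. AMP generation read by TR-FRET; IC50 as 50% inhibition of cleavage versus controls, reported as nM ranges.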
Regarding `CCc1nn(CCCOC(=O)c2cc(Cl)ccc2F)c2c1C(=O)NCC1(CCOCC1)C2` [Example 83, 3-(3-ethyl-4-oxo-spiro[6,8-dihydro-5H-pyrazolo[4,3-c]azepine-7,4′-tetrahydropyran]-1-yl)propyl 5-chloro-2-fluoro-benzoate], the IC50 was less than 100 nM.
For `CCc1nn(CCCOC(=O)c2ccc(F)c(Cl)c2)c2c1C(=O)NCC1(CCOCC1)C2` [Example 84, 3-(3-ethyl-4-oxo-spiro[6,8-dihydro-5H-pyrazolo[4,3-c]azepine-7,4′-tetrahydropyran]-1-yl)propyl 3-chloro-4-fluoro-benzoate], the IC50 is less than 100 nM.
As for `CCc1nn(CCCOC(=O)c2ccc(Cl)cc2F)c2c1C(=O)NCC1(CCOCC1)C2` [Example 85, 3-(3-ethyl-4-oxo-spiro[6,8-dihydro-5H-pyrazolo[4,3-c]azepine-7,4′-tetrahydropyran]-1-yl)propyl 4-chloro-2-fluoro-benzoate], the IC50 was less than 100 nM.
Take `CCc1nn(CCCOC(=O)c2ccc(OC)c(Cl)c2)c2c1C(=O)NCC1(CCOCC1)C2` [Example 86, 3-(3-ethyl-4-oxo-spiro[6,8-dihydro-5H-pyrazolo[4,3-c]azepine-7,4′-tetrahydropyran]-1-yl)propyl 3-chloro-4-methoxy-benzoate]: the IC50 was less than 100 nM.
On to `CCc1nn(CCCOC(=O)c2ccc(Cl)c(OC)c2)c2c1C(=O)NCC1(CCOCC1)C2` [Example 87, 3-(3-ethyl-4-oxo-spiro[6,8-dihydro-5H-pyrazolo[4,3-c]azepine-7,4′-tetrahydropyran]-1-yl)propyl 4-chloro-3-methoxy-benzoate], for which the IC50 was less than 100 nM.
For the compound `CCc1nn(CCCOC(=O)c2cc(Cl)cc(OC)c2)c2c1C(=O)NCC1(CCOCC1)C2` [Example 88, 3-(3-ethyl-4-oxo-spiro[6,8-dihydro-5H-pyrazolo[4,3-c]azepine-7,4′-tetrahydropyran]-1-yl)propyl 3-chloro-5-methoxy-benzoate], the IC50 is less than 100 nM.
As to `CCc1nn(CCCOC(=O)c2ccc(OC)cc2Cl)c2c1C(=O)NCC1(CCOCC1)C2` [Example 89, 3-(3-ethyl-4-oxo-spiro[6,8-dihydro-5H-pyrazolo[4,3-c]azepine-7,4′-tetrahydropyran]-1-yl)propyl 2-chloro-4-methoxy-benzoate], the IC50 was less than 100 nM.
On to `CCc1nn(CCCOC(=O)c2cc(OC)ccc2Cl)c2c1C(=O)NCC1(CCOCC1)C2` [Example 90, 3-(3-ethyl-4-oxo-spiro[6,8-dihydro-5H-pyrazolo[4,3-c]azepine-7,4′-tetrahydropyran]-1-yl)propyl 2-chloro-5-methoxy-benzoate], for which the IC50 was less than 100 nM.
In the case of `CCc1nn(CCCOC(=O)c2cccc(OC)c2Cl)c2c1C(=O)NCC1(CCOCC1)C2` [Example 91, 3-(3-ethyl-4-oxo-spiro[6,8-dihydro-5H-pyrazolo[4,3-c]azepine-7,4′-tetrahydropyran]-1-yl)propyl 2-chloro-3-methoxy-benzoate] it was less than 100 nM; in that of `CCc1nn(CCCOC(=O)c2ccc(Cl)cc2OC)c2c1C(=O)NCC1(CCOCC1)C2` [Example 92, 3-(3-ethyl-4-oxo-spiro[6,8-dihydro-5H-pyrazolo[4,3-c]azepine-7,4′-tetrahydropyran]-1-yl)propyl 4-chloro-2-methoxy-benzoate], less than 100 nM; in that of `CCc1nn(CCCOC(=O)c2cc(Cl)ccc2OC)c2c1C(=O)NCC1(CCOCC1)C2` [Example 93, 3-(3-ethyl-4-oxo-spiro[6,8-dihydro-5H-pyrazolo[4,3-c]azepine-7,4′-tetrahydropyran]-1-yl)propyl 5-chloro-2-methoxy-benzoate], less than 100 nM.
For `CCc1nn(CCCOC(=O)c2cccc(Cl)c2OC)c2c1C(=O)NCC1(CCOCC1)C2` [Example 94, 3-(3-ethyl-4-oxo-spiro[6,8-dihydro-5H-pyrazolo[4,3-c]azepine-7,4′-tetrahydropyran]-1-yl)propyl 3-chloro-2-methoxy-benzoate], the IC50 was less than 100 nM.
Take `CCc1nn(CCCOC(=O)c2ccccc2C(F)(F)F)c2c1C(=O)NCC1(CCOCC1)C2` [Example 95, 3-(3-ethyl-4-oxo-spiro[6,8-dihydro-5H-pyrazolo[4,3-c]azepine-7,4′-tetrahydropyran]-1-yl)propyl 2-(trifluoromethyl)benzoate]: the IC50 is less than 100 nM.
With `CCc1nn(CCCOC(=O)c2cccc(C(F)(F)F)c2)c2c1C(=O)NCC1(CCOCC1)C2` [Example 96, 3-(3-ethyl-4-oxo-spiro[6,8-dihydro-5H-pyrazolo[4,3-c]azepine-7,4′-tetrahydropyran]-1-yl)propyl 3-(trifluoromethyl)benzoate], the IC50 was less than 100 nM.
In the case of `CCc1nn(CCCOC(=O)c2ccc(C(F)(F)F)cc2)c2c1C(=O)NCC1(CCOCC1)C2` [Example 97, 3-(3-ethyl-4-oxo-spiro[6,8-dihydro-5H-pyrazolo[4,3-c]azepine-7,4′-tetrahydropyran]-1-yl)propyl 4-(trifluoromethyl)benzoate] it was less than 100 nM; in that of `CCc1nn(CCCOC(=O)c2ccc(S(C)(=O)=O)cc2)c2c1C(=O)NCC1(CCOCC1)C2` [Example 98, 3-(3-ethyl-4-oxo-spiro[6,8-dihydro-5H-pyrazolo[4,3-c]azepine-7,4′-tetrahydropyran]-1-yl)propyl 4-methylsulfonylbenzoate], less than 100 nM; in that of `CCc1nn(CCCOC(=O)c2cccc(S(C)(=O)=O)c2)c2c1C(=O)NCC1(CCOCC1)C2` [Example 99, 3-(3-ethyl-4-oxo-spiro[6,8-dihydro-5H-pyrazolo[4,3-c]azepine-7,4′-tetrahydropyran]-1-yl)propyl 3-methylsulfonylbenzoate], less than 100 nM.
`CCc1nn(CCCOC(=O)c2ccccc2S(C)(=O)=O)c2c1C(=O)NCC1(CCOCC1)C2` [Example 100, 3-(3-ethyl-4-oxo-spiro[6,8-dihydro-5H-pyrazolo[4,3-c]azepine-7,4′-tetrahydropyran]-1-yl)propyl 2-methylsulfonylbenzoate]: the IC50 was less than 100 nM.
In the case of `CCc1nn(CCCOC(=O)c2ccc(S(N)(=O)=O)cc2)c2c1C(=O)NCC1(CCOCC1)C2` [Example 101, 3-(3-ethyl-4-oxo-spiro[6,8-dihydro-5H-pyrazolo[4,3-c]azepine-7,4′-tetrahydropyran]-1-yl)propyl 4-sulfamoylbenzoate], the IC50 is less than 100 nM.
In the case of `CCc1nn(CCCOC(=O)c2cccc(S(N)(=O)=O)c2)c2c1C(=O)NCC1(CCOCC1)C2` [Example 102, 3-(3-ethyl-4-oxo-spiro[6,8-dihydro-5H-pyrazolo[4,3-c]azepine-7,4′-tetrahydropyran]-1-yl)propyl 3-sulfamoylbenzoate], the IC50 was less than 100 nM.
Consider `CCc1nn(CCCOC(=O)c2ccc(C)c(C(F)(F)F)c2)c2c1C(=O)NCC1(CCOCC1)C2` [Example 103, 3-(3-ethyl-4-oxo-spiro[6,8-dihydro-5H-pyrazolo[4,3-c]azepine-7,4′-tetrahydropyran]-1-yl)propyl 4-methyl-3-(trifluoromethyl)benzoate], for which the IC50 is less than 100 nM.
For `CCc1nn(CCCOC(=O)c2cccc(C(F)(F)F)c2C)c2c1C(=O)NCC1(CCOCC1)C2` [Example 104, 3-(3-ethyl-4-oxo-spiro[6,8-dihydro-5H-pyrazolo[4,3-c]azepine-7,4′-tetrahydropyran]-1-yl)propyl 2-methyl-3-(trifluoromethyl)benzoate] the value was less than 100 nM.
Consider `CCc1nn(CCCOC(=O)c2cc(C(F)(F)F)ccc2C)c2c1C(=O)NCC1(CCOCC1)C2` [Example 105, 3-(3-ethyl-4-oxo-spiro[6,8-dihydro-5H-pyrazolo[4,3-c]azepine-7,4′-tetrahydropyran]-1-yl)propyl 2-methyl-5-(trifluoromethyl)benzoate], for which the IC50 was less than 100 nM.
In the case of `CCc1nn(CCCOC(=O)c2cccc(F)c2C(F)(F)F)c2c1C(=O)NCC1(CCOCC1)C2` [Example 106, 3-(3-ethyl-4-oxo-spiro[6,8-dihydro-5H-pyrazolo[4,3-c]azepine-7,4′-tetrahydropyran]-1-yl)propyl 3-fluoro-2-(trifluoromethyl)benzoate], the IC50 was less than 100 nM.
In the case of `CCc1nn(CCCOC(=O)c2c(F)cccc2C(F)(F)F)c2c1C(=O)NCC1(CCOCC1)C2` [Example 107, 3-(3-ethyl-4-oxo-spiro[6,8-dihydro-5H-pyrazolo[4,3-c]azepine-7,4′-tetrahydropyran]-1-yl)propyl 2-fluoro-6-(trifluoromethyl)benzoate] it was less than 100 nM.
For `CCc1nn(CCCOC(=O)c2cc(F)cc(C(F)(F)F)c2)c2c1C(=O)NCC1(CCOCC1)C2` [Example 108, 3-(3-ethyl-4-oxo-spiro[6,8-dihydro-5H-pyrazolo[4,3-c]azepine-7,4′-tetrahydropyran]-1-yl)propyl 3-fluoro-5-(trifluoromethyl)benzoate], the IC50 was less than 100 nM.
`CCc1nn(CCCOC(=O)c2ccc(F)cc2C(F)(F)F)c2c1C(=O)NCC1(CCOCC1)C2` [Example 109, 3-(3-ethyl-4-oxo-spiro[6,8-dihydro-5H-pyrazolo[4,3-c]azepine-7,4′-tetrahydropyran]-1-yl)propyl 4-fluoro-2-(trifluoromethyl)benzoate]: the IC50 is less than 100 nM.
In the case of `CCc1nn(CCCOC(=O)c2ccc(C(F)(F)F)c(F)c2)c2c1C(=O)NCC1(CCOCC1)C2` [Example 110, 3-(3-ethyl-4-oxo-spiro[6,8-dihydro-5H-pyrazolo[4,3-c]azepine-7,4′-tetrahydropyran]-1-yl)propyl 3-fluoro-4-(trifluoromethyl)benzoate], the IC50 is less than 100 nM.
`CCc1nn(CCCOC(=O)c2ccc(F)c(C(F)(F)F)c2)c2c1C(=O)NCC1(CCOCC1)C2` [Example 111, 3-(3-ethyl-4-oxo-spiro[6,8-dihydro-5H-pyrazolo[4,3-c]azepine-7,4′-tetrahydropyran]-1-yl)propyl 4-fluoro-3-(trifluoromethyl)benzoate]: the IC50 is less than 100 nM.

Source of the values: US10906915B2, “Substituted pyrazoloazepin-4-ones and their use as phosphodiesterase inhibitors” (LEO Pharma A/S, priority 2016, dated 2021).
